Source: US20090233307A1, “METHODS FOR DETECTION OF SINGLE STRAND BREAKS IN DNA” (The University of North Carolina at Chapel Hill, priority 2008, published 2009)

Key:
[1] = system: DT40 cells; assay: Cell death in DT40 cells; type: cell-based; settings: unpublished data
[2] = system: AP sites in genomic DNA exposed to heat/acid conditions; assay: OTX optimization for protection of AP sites from alkaline cleavage (alkaline gel electrophoresis); set-up: species or system chicken; settings: OTX 37° C. 1 hour, denaturation 100 mM NaOH (pH 12.8)
Description: AP sites were produced in stock DT40 DNA through exposure to heat/acid conditions. DT40 DNA was incubated in sodium citrate buffer (10 mM sodium citrate, 10 mM NaH2PO4, 10 mM NaCl pH 5) for 5 minutes at 70° C., followed by rapid chilling on ice to stop the reaction (Nakamura et al., Cancer Res., 58, 222-225 (1998)). Depurinated DNA was collected using Microcon® YM-3 centrifugal filter devices (Amicon Bioseparations). This DNA was then washed several times with HEPES buffer (50 mM, pH 7) supplemented with 1 mM 2,2,6,6-tetramethylpiperidine-N-oxyl (TEMPO). DNA was resuspended in HEPES buffer containing 1 mM TEMPO.
An alkaline gel electrophoresis protocol (AGE) (Drouin et al., in: Technologies for Detection of DNA Damage and Mutations (G. P. Pfeifer, ed.). Plenum Press, New York, N.Y., pp. 37-43 (1996)) with modifications was used to assess SSBs and ALSs in DNA from exposed cells. The 0.7% agarose gel was prepared in gel buffer (50 mM NaCl, 1 mM EDTA, pH 7) and deionized water. After forming, the gel was soaked in mild alkaline running buffer (30 mM NaOH, 1 mM EDTA, pH 12.4) for at least 30 minutes. Equal amounts of DNA (3-5 μg) were incubated for 1 hour at 37° C. in the presence or absence of 30 mM OTX (Aldrich) in 50 mM HEPES buffer. […] Following OTX exposure, the samples were denatured through treatment with an alkaline buffer (100 mM NaOH, 30 mM OTX, 50 mM HEPES, pH 12.8) for 20 minutes at 37° C. Samples then received loading buffer (10 mM NaOH, 95% formamide (Fluka), 0.05% bromophenol blue, 0.05% xylene cyanol) and were loaded onto the agarose gel. The gel was subjected to electrophoresis at a constant voltage (30 V) for 16 hours at 4° C. At the completion of electrophoresis, the gel was placed in neutralization buffer (400 mM Tris, pH 7.5) for 20 minutes at room temperature. […]
With knowledge of optimal AP site cleavage (pH≧12.2) and DNA denaturation (pH≦12.56) conditions, the utility of stabilizing AP sites prior to complete unwinding at high pH was assessed for subsequent gel electrophoresis. […]

[3] = system: Chinese hamster ovary (CHO) AA8 cells; assay: OTX-coupled comet assay; type: cell-based; settings: 1 mM MMS 10 minutes
Description: Chinese hamster ovary (CHO) AA8 cells were seeded at a concentration 0.5×10^6 cell/mL into several 10 cm culture dishes with 10 mL of MEM-α media (Gibco) supplemented with 10% fetal bovine serum (heat inactivated; Sigma), 100 μg/mL penicillin, and 100 μg/mL streptomycin. These were allowed to grow for 48 hours at 37° C. and 5% CO2. Culture dishes were about 80-85% confluent at harvest.
Before cells were harvested for use in the comet assay, the lysis solution (2.5 M NaCl, 100 mM Na2-EDTA, 10 mM Trizma, pH 10) was completed with the addition of 10% (v/v) DMSO and 1% (v/v) Triton X-100, mixed thoroughly, and refrigerated at 4° C. A 0.5% solution of low melting point agarose (LMPA) was also prepared and allowed to equilibrate to 37° C. in a water bath. Partially frosted microscope slides, pre-coated several days before with 50 μL of 1% normal melting point agarose (NMPA), were labeled and set aside.
Prior to cell harvest, the media was removed and each dish was washed with 10 mL of 1×PBS. An additional 2 mL of 1×PBS was added to each dish and the cells were harvested using a rubber policeman. Harvested cells were combined into 15 mL centrifuged tubes and gently mixed by pipetting to obtain a homogenous cell sample. The cell count was obtained using a hemacytometer. The volume of cell sample needed to obtain 11,000 cells per slide to be prepared was added to a new 15 mL centrifuge tube and centrifuged for 5 minutes at 1,100 RPM. The supernatant was removed and the cell pellet resuspended in 1×PBS at a volume equal to 10 μL per slide to be prepared (e.g. 5 slides×10 μL per slide=50 μL 1×PBS total).
For each slide to be prepared, 10 μL of the cell sample was added to a 1.5 mL centrifuge tube. The cell layer of the slide was created by first gently mixing 100 μL of the 0.5% LMPA with the 10 μL of cell sample in the tube. This mixture was then added to a pre-coated slide and a coverslip placed onto the slide to create a thin layer of the cell mixture. Slides with cell layers were then refrigerated at 4° C. for 15 minutes to solidify the gel. After this incubation, the initial coverslips were removed and an additional 150 μL of 0.5% LMPA was added to each slide. A fresh coverslip was placed onto each slide to create a thin top layer and the slides were refrigerated for another 15 minutes. After removing the coverslip, completed slides that were receiving MMS treatment were placed in a slide chamber containing warmed MEM-α media with 1 mM MMS for 10 minutes. The slide chamber was kept warm by placing it within an incubator held at 37° C. After the 10 minutes, the slides were washed with 1×PBS for 5 minutes at room temperature and then transferred to slide chambers containing the chilled lysis solution. […]

[4] = system: DT40 cells; assay: SSB repair through NAD(P)H depletion, DT40 cells; type: cell-based, chicken; settings: DT40 cells exposed to MMS
Description: (§1) SSB repair capacity was determined by a real-time colorimetric assay that measures intracellular NAD(P)H levels (Tano et al., DNA Repair, 6, 869-875 (2007)). PARP-1 activation during SSB repair leads to NAD^+ consumption, which can be indirectly monitored through NAD(P)H depletion (Nakamura et al., Nucleic Acids Res., 31, e104 (2003)). Briefly, 5×10^3 cells/well were seeded into a 96-well plate. After a 30 minute incubation period, the cells were treated with 1 mM MMS quickly followed by the addition of a dye containing XTT (Sigma) and 1-methoxy PMS (Sigma). For up to 4 hours, the NAD(P)H-dependent conversion of the XTT tetrazolium salt to a yellow colored formazan dye was measured spectrophotometrically. Decreases in intracellular NAD(P)H levels were determined through comparison of values to those of the PBS control. Established methods for detecting SSBs have not been adequately characterized for pH effects on DNA structure and chemistry and also lack a high specificity for SSBs, primarily because of artifactual SSB formation. […] The accumulation of SSBs leads to PARP-1 over-activation and the consumption of NAD+, which is indirectly monitored in living cells through the measurement of intracellular NAD(P)H depletion using tetrazolium salts, such as XTT, during chemical exposure (Tano et al., DNA Repair, 6, 869-875 (2007)). […]

[5] = system: Pol β null cells; assay: SSB repair through NAD(P)H depletion, Pol β null cells; type: cell-based, chicken; settings: Pol β null cells exposed to MMS
Description: as §1

| SMILES | concentration that induces cell death [1] [µM] | optimum concentration to protect AP sites from alkaline cleavage [2] [mM] | OTX concentration with complete protection of AP sites from alkaline cleavage ([2]; electrophoresis pH 12.4) [mM] | OTX concentration with little to no protection of AP sites from alkaline cleavage ([2]; electrophoresis pH 12.4) [mM] | tail moments over the various incubation times with OTX protection ([3]; 300 mM OTX 0-4 hours at 37° C.) | tail moment with OTX protection vs 1 hour incubation without OTX ([3]; 300 mM OTX, 1 hour incubation) | tail moment, one hour incubation with OTX vs zero hour incubation control without OTX ([3]; 300 mM OTX, one hour) | protection from MMS-induced NAD(P)H depletion [4] | protection from MMS-induced NAD(P)H depletion [5] |
| --- | --- | --- | --- | --- | --- | --- | --- | --- | --- |
| CON [Methoxyamine] | 20000 to 30000 | – | – | – | – | – | – | – | – |
| NOC1CCCCO1 (stereo not shown) [OTX, O-(tetrahydro-2H-pyran-2-yl)hydroxylamine] | 2000 | 30 | ≥ 10 | < 1 | no significant increase in tail moments | significant decrease in tail moment | significant decrease in tail moment | – | – |
| NC(=O)c1cccc(N)c1 [3-aminobenzamide] | – | – | – | – | – | – | – | mostly protected | mostly protected |
